# Like-named read-outs stand apart in the source and are kept apart here.
# Tested on: recombinant NL4-3 virus (Renilla luciferase) in MT-2 cells
# Experiment: HIV cell culture assay (antiviral activity, luciferase readout in infected MT-2 cells)
# Type: cell-based
# Conditions: Renilla
# Protocol: HIV cell culture assay—MT-2 cells, 293T cells and the proviral DNA clone of NL4-3 virus were obtained from the NIH AIDS Research and Reference Reagent Program. MT-2 cells were propagated in RPMI 1640 media supplemented with 10% heat inactivated fetal bovine serum (FBS), 100 ug/ml penicillin G and up to 100 units/ml streptomycin. The 293T cells were propagated in DMEM media supplemented with 10% heat inactivated FBS, 100 ug/ml penicillin G and 100 ug/ml streptomycin. A recombinant NL4-3 proviral clone, in which a section of the nef gene was replaced with the Renilla luciferase gene, was used to make the reference virus used in these studies. The recombinant virus was prepared through transfection of the recombinant NL4-3 proviral clone into 293T cells using Transit-293 Transfection Reagent from Mirus Bio LLC (Madison, Wis.). Supernatent was harvested after 2-3 days after transfection, and the amount of virus present was titered in MT-2 cells using luciferase enzyme activity as a marker. Luciferase activity was quantitated using the EnduRen Live Cell Substrate from Promega (Madison, Wis.). Antiviral activities of compounds toward the recombinant virus were quantified by measuring luciferase activity in MT-2 cells infected for 4-5 days with the recombinant virus in the presence of serial dilutions of the compound.
# The 50% effective concentration (EC50) was calculated by using the exponential form of the median effect equation where (Fa)=1/[1+(ED50/drug conc.)^m](Johnson V A, Byington R T. Infectivity Assay. In Techniques in HIV Research. ed. Aldovini A, Walker B D. 71-76. New York: Stockton Press. 1990).
# [1] = NL43, read-out: Activity, antiviral activity class, recombinant NL4-3 Renilla luciferase virus in MT-2 cells
# [2] = NL43, recombinant NL4-3 Renilla luciferase virus in MT-2 cells
Compound,EC50 [1] [nM],EC50 [2] [nM]
"Cc1ccc(C[C@H](NC(=O)NS(=O)(=O)c2ccccc2C)C(=O)N(C)c2ccc3c(c2)OCO3)cc1 [Example 72, (S)—N-(benzo[d][1,3]dioxol-5-yl)-N-methyl-3-(p-tolyl)-2-(3-(o-tolylsulfonyl)ureido)propanamide]",100 to 1000,580
"C/C=C\c1ccccc1S(=O)(=O)NC(=O)N[C@@H](Cc1ccccc1)C(=O)N(C)c1ccc2c(c1)OCO2 [Example 137, (S,Z)—N-(benzo[d][1,3]dioxol-5-yl)-N-methyl-3-phenyl-2-(3-((2-(prop-1-en-1-yl)phenyl)sulfonyl)ureido)propanamide]",100 to 1000,
"Cc1ccccc1S(=O)(=O)NC(=O)N[C@@]1(C(=O)N(C)c2ccc3c(c2)OCO3)C[C@H]1c1ccccc1 [Example 79, (1S,2S)—N-(benzo[d][1,3]dioxol-5-yl)-N-methyl-2-phenyl-1-(3-(o-tolylsulfonyl)ureido)cyclopropanecarboxamide]",10000 to 100000,
"CN(C(=O)[C@H](Cc1ccccc1)NC(=O)NS(C)(=O)=O)c1ccc2c(c1)OCO2 [Example 44, (S)—N-(benzo[d][1,3]dioxol-5-yl)-N-methyl-2-(3-(methylsulfonyl)ureido)-3-phenylpropanamide]",1000 to 10000,2480
"CN(C(=O)[C@H](Cc1ccccc1)NC(=O)NS(=O)(=O)c1ccc(F)cc1F)c1ccc2c(c1)OCO2 [Example 18, (S)—N-(benzo[d][1,3]dioxol-5-yl)-2-(3-((2,4-difluorophenyl)sulfonyl)ureido)-N-methyl-3-phenylpropanamide]",100 to 1000,200
"Cc1ccccc1S(=O)(=O)NC(=O)N[C@@H](Cc1ccccc1)C(=O)N(C)c1ccc2ncsc2c1 [Example CA-95, (S)—N-(benzo[d]thiazol-6-yl)-N-methyl-3-phenyl-2-(3-(o-tolylsulfonyl)ureido)propanamide]",< 100,
"CC(C)CS(=O)(=O)NC(=O)N[C@@H](Cc1ccccc1)C(=O)N(C)c1ccc2c(c1)OCO2 [Example 45, (S)—N-(benzo[d][1,3]dioxol-5-yl)-2-(3-(isobutylsulfonyl)ureido)-N-methyl-3-phenylpropanamide]",100 to 1000,
"Cc1ccccc1S(=O)(=O)NC(=O)N[C@@H](Cc1ccccc1)C(=O)N(C)c1ccc2c(c1)CCC2 [Example 207, (S)—N-(2,3-dihydro-1H-inden-5-yl)-N-methyl-3-phenyl-2-(3-(o-tolylsulfonyl)ureido)propanamide]",< 100,
"Cc1ccccc1S(=O)(=O)NC(=O)N[C@@H](Cc1cc(F)cc(F)c1)C(=O)N(C)c1cc2ccccc2cn1 [Example CA-105, (S)-3-(3,5-difluorophenyl)-N-(isoquinolin-3-yl)-N-methyl-2-(3-(o-tolylsulfonyl)ureido)propanamide]",100 to 1000,
"COc1cccc(C[C@H](NC(=O)NS(=O)(=O)c2ccccc2C)C(=O)N(C)c2ccc3c(c2)OCO3)c1 [Example 78, (S)—N-(benzo[d][1,3]dioxol-5-yl)-3-(3-methoxyphenyl)-N-methyl-2-(3-(o-tolylsulfonyl)ureido)propanamide]",100 to 1000,
"CN(C(=O)[C@H](Cc1ccccc1)NC(=O)NS(=O)(=O)c1ccccc1OC(F)(F)F)c1ccc2c(c1)OCO2 [Example 14, (S)—N-(benzo[d][1,3]dioxol-5-yl)-N-methyl-3-phenyl-2-(3-((2-(trifluoromethoxy)phenyl)sulfonyl)ureido)propanamide]",< 100,
"CCCN(C(=O)[C@H](Cc1ccccc1)NC(=O)NS(=O)(=O)c1ccccc1C)c1ccc(Cl)c(Cl)c1 [Example 183, (S)—N-(3,4-dichlorophenyl)-3-phenyl-N-propyl-2-(3-(o-tolylsulfonyl)ureido)propanamide]",100 to 1000,310
"CN(C(=O)[C@H](Cc1ccccc1)NC(=O)NS(=O)(=O)c1ccc(F)cc1)c1ccc2c(c1)OCO2 [Example 22, (S)—N-(benzo[d][1,3]dioxol-5-yl)-2-(3-((4-fluorophenyl)sulfonyl)ureido)-N-methyl-3-phenylpropanamide]",100 to 1000,
"Cc1ccccc1S(=O)(=O)NC(=O)N[C@@H](Cc1ccccc1)C(=O)N1CCCC1c1cccnc1 (stereo partly drawn) [Example 189, 2-methyl-N-(((2S)-1-oxo-3-phenyl-1-(2-(pyridin-3-yl)pyrrolidin-1-yl)propan-2-yl)carbamoyl)benzenesulfonamide]",1000 to 10000,
"CCCc1ccccc1S(=O)(=O)NC(=O)N[C@@H](Cc1ccccc1)C(=O)N(C)c1ccc2c(c1)OCO2 [Example 145, (S)—N-(benzo[d][1,3]dioxol-5-yl)-N-methyl-3-phenyl-2-(3-((2-propylphenyl)sulfonyl)ureido)propanamide]",100 to 1000,
"Cc1ccccc1S(=O)(=O)NC(=O)N[C@@H](CCc1ccccc1)C(=O)N(C)c1ccc2c(c1)OCO2 [Example 209, (S)—N-(benzo[d][1,3]dioxol-5-yl)-N-methyl-4-phenyl-2-(3-(o-tolylsulfonyl)ureido)butanamide]",10000 to 100000,
"COc1ccccc1N(C)C(=O)[C@H](Cc1ccccc1)NC(=O)NS(=O)(=O)c1ccccc1 [Example 95, (S)—N-(2-methoxyphenyl)-N-methyl-3-phenyl-2-(3 (phenylsulfonyl)ureido)-propanamide]",1000 to 10000,
"Cc1ccccc1S(=O)(=O)NC(=O)N[C@@H](Cc1cc(F)cc(F)c1)C(=O)N(C)c1ccc(OC(F)(F)F)cc1 [Example CA-108, (S)-3-(3,5-difluorophenyl)-N-methyl-2-(3-(o-tolylsulfonyl)ureido)-N-(4-(trifluoromethoxy)phenyl)propanamide]",100 to 1000,
"Cc1ccccc1S(=O)(=O)NC(=O)N[C@@H](Cc1ccccc1)C(=O)N1CCc2sccc2C1 [Example 186, (S)—N-((1-(6,7-dihydrothieno[3,2-c]pyridin-5(4H)-yl)-1-oxo-3-phenylpropan-2-yl)carbamoyl)-2-methylbenzenesulfonamide]",1000 to 10000,3590
"COc1ccc(N(Cc2ccccc2)C(=O)[C@H](Cc2ccccc2)NC(=O)NS(=O)(=O)c2ccccc2C)cc1 [Example ZY-3, (S)—N-benzyl-N-(4-methoxyphenyl)-3-phenyl-2-(3-(o-tolylsulfonyl)ureido)propanamide]",1000 to 10000,3610
"Cc1ccccc1S(=O)(=O)NC(=O)N[C@@H](Cc1cc(F)cc(F)c1)C(=O)N(C)c1ccc(F)cc1F [Example CA-112, (S)—N-(2,4-difluorophenyl)-3-(3,5-difluorophenyl)-N-methyl-2-(3-(o-tolylsulfonyl)ureido)propanamide]",1000 to 10000,1290
"CCN(C(=O)[C@H](Cc1ccccc1)NC(=O)NS(=O)(=O)c1cccc(C(C)C)c1)c1ccc(OC)cc1 [Example 143, (S)—N-ethyl-2-(3-((3-isopropylphenyl)sulfonyl)ureido)-N-(4-methoxyphenyl)-3-phenylpropanamide]",< 100,
"CN(C(=O)[C@H](Cc1ccccc1)NC(=O)NS(=O)(=O)c1ccccc1C(F)(F)F)c1ccc2c(c1)OCO2 [Example 17, (S)—N-(benzo[d][1,3]dioxol-5-yl)-N-methyl-3-phenyl-2-(3-((2-(trifluoromethyl)phenyl)sulfonyl)ureido)propanamide]",100 to 1000,
"Cc1ccccc1S(=O)(=O)NC(=O)N[C@@H](Cc1ccccc1)C(=O)N(C)c1ccc2cccnc2c1 [Example CA-98, (S)—N-methyl-3-phenyl-N-(quinolin-7-yl)-2-(3-(o-tolylsulfonyl)ureido)propanamide]",100 to 1000,120
"Cc1ccc2cc(N(C)C(=O)[C@H](Cc3ccccc3)NC(=O)NS(=O)(=O)c3ccccc3C)ccc2n1 [Example CA-72, (S)—N-methyl-N-(2-methylquinolin-6-yl)-3-phenyl-2-(3-(o-tolylsulfonyl)ureido)propanamide]",< 100,30
"CCN(CC)CCN(C)C(=O)[C@H](Cc1ccccc1)NC(=O)NS(=O)(=O)c1ccccc1 [Example 96, (S)—N-(2-(diethylamino)ethyl)-N-methyl-3-phenyl-2-(3-(phenylsulfonyl)ureido)propanamide]",,> 100000
"Cc1ccccc1S(=O)(=O)NC(=O)N[C@@H](Cc1cccc(C(N)=O)c1)C(=O)N(C)c1ccc2c(c1)OCO2 [Example 80, (S)-3-(3-(benzo[d][1,3]dioxol-5-yl(methyl)amino)-3-oxo-2-(3-(o-tolylsulfonyl)ureido)propyl)benzamide]",,> 100000
"COc1ccc2c(c1)OCCN2C(=O)[C@H](Cc1ccccc1)NC(=O)NS(=O)(=O)c1ccccc1C [Example 172, (S)—N-((1-(7-methoxy-2H-benzo[b][1,4]oxazin-4(3H)-yl)-1-oxo-3-phenylpropan-2-yl)carbamoyl)-2-methylbenzenesulfonamide]",100 to 1000,270
"Cc1ccccc1S(=O)(=O)NC(=O)N[C@@H](Cc1ccc(F)c(F)c1)C(=O)N(C)c1ccc2c(c1)OCO2 [Example 60, (S)—N-(benzo[d][1,3]dioxol-5-yl)-3-(3,4-difluorophenyl)-N-methyl-2-(3-(o-tolylsulfonyl)ureido)propanamide]",100 to 1000,230
